This data set is described as follows: activity coefficient (dimensionless); of the first substance listed, at infinite dilution; xn = mol fraction of the nth substance listed. The note with it: Liquid, Chromatography, x1 = 0.

Numbers after ± are expanded uncertainties.

As for `C1COCCO1` [1,4-dioxane] + CCCCn1cc[n+](C)c1.F[B-](F)(F)F, the activity coefficient by setting is: (303.15 K) 1.53 ± 0.13; (313.15 K) 1.54 ± 0.13; (323.15 K) 1.55 ± 0.13; (333.15 K) 1.56 ± 0.13; (343.15 K) 1.57 ± 0.13.
The corresponding values for `CC(C)CO` [2-methyl-1-propanol] + CCCCn1cc[n+](C)c1.F[B-](F)(F)F are 2.63 ± 0.23, 2.22 ± 0.19, 1.86 ± 0.16, 1.66 ± 0.14 and 1.53 ± 0.13.
The corresponding values for `CC(C)CCO` [3-methylbutan-1-ol] + CCCCn1cc[n+](C)c1.F[B-](F)(F)F are 6.63 ± 0.57, 5.74 ± 0.49, 5.08 ± 0.44, 4.53 ± 0.39 and 4.08 ± 0.35.
Taken in the same sequence, the figures for `CC(C)=O` [acetone] + CCCCn1cc[n+](C)c1.F[B-](F)(F)F were 1.16 ± 0.096, 1.19 ± 0.098, 1.21 ± 0.1, 1.23 ± 0.1 and 1.25 ± 0.1.
With `CC#N` [acetonitrile] + CCCCn1cc[n+](C)c1.F[B-](F)(F)F, the activity coefficient (303.15 K) is 0.734 ± 0.062; the activity coefficient (313.15 K) is 0.742 ± 0.063; the activity coefficient (323.15 K) came out at 0.752 ± 0.063; the activity coefficient (333.15 K) is 0.757 ± 0.064; the activity coefficient (343.15 K) is 0.768 ± 0.065.
Taken in the same sequence, the figures for `CCCCO` [butan-1-ol] + CCCCn1cc[n+](C)c1.F[B-](F)(F)F were 4.14 ± 0.36, 3.67 ± 0.32, 3.3 ± 0.28, 2.98 ± 0.26 and 2.72 ± 0.23.
Taken in the same sequence, the figures for `CCC(C)O` (stereo not given) [butan-2-ol] + CCCCn1cc[n+](C)c1.F[B-](F)(F)F were 3.85 ± 0.33, 3.44 ± 0.3, 3.12 ± 0.27, 2.79 ± 0.24 and 2.56 ± 0.22.
In the case of `O=C1CCCCC1` [cyclohexanone] + CCCCn1cc[n+](C)c1.F[B-](F)(F)F, the activity coefficient is, setting by setting: (323.15 K) 2.64 ± 0.23; (333.15 K) 2.62 ± 0.23; (343.15 K) 2.61 ± 0.23; (353.15 K) 2.58 ± 0.22; (363.15 K) 2.57 ± 0.22.
With `ClCCl` [dichloromethane] + CCCCn1cc[n+](C)c1.F[B-](F)(F)F, the activity coefficient was found to be 1.1 ± 0.091 (303.15 K); 1.15 ± 0.095 (313.15 K); 1.2 ± 0.099 (323.15 K); 1.24 ± 0.1 (333.15 K); 1.28 ± 0.11 (343.15 K).
The corresponding values for `CCO` [ethanol] + CCCCn1cc[n+](C)c1.F[B-](F)(F)F are 1.59 ± 0.14, 1.39 ± 0.12, 1.27 ± 0.11, 1.17 ± 0.097 and 1.07 ± 0.088.
Take `CCOC(C)=O` [ethyl acetate] + CCCCn1cc[n+](C)c1.F[B-](F)(F)F: the activity coefficient by setting is: (303.15 K) 3.3 ± 0.28; (313.15 K) 3.34 ± 0.29; (323.15 K) 3.36 ± 0.29; (333.15 K) 3.39 ± 0.29; (343.15 K) 3.41 ± 0.29.
For `CO` [methanol] + CCCCn1cc[n+](C)c1.F[B-](F)(F)F, the activity coefficient runs as follows: (303.15 K) 0.813 ± 0.068; (313.15 K) 0.716 ± 0.061; (323.15 K) 0.646 ± 0.056; (333.15 K) 0.596 ± 0.053; (343.15 K) 0.529 ± 0.048.
Turning to `CCCCCO` [pentan-1-ol] + CCCCn1cc[n+](C)c1.F[B-](F)(F)F, the activity coefficient was found to be 6.96 ± 0.6 (303.15 K); 5.91 ± 0.51 (313.15 K); 5.15 ± 0.45 (323.15 K); 4.56 ± 0.39 (333.15 K); 4 ± 0.34 (343.15 K).
The corresponding values for `CCCO` [propan-1-ol] + CCCCn1cc[n+](C)c1.F[B-](F)(F)F are 2.8 ± 0.24, 2.48 ± 0.21, 2.23 ± 0.19, 1.96 ± 0.17 and 1.64 ± 0.14.
The corresponding values for `CC(C)O` [propan-2-ol] + CCCCn1cc[n+](C)c1.F[B-](F)(F)F are 2.63 ± 0.23, 2.22 ± 0.19, 1.86 ± 0.16, 1.66 ± 0.14 and 1.53 ± 0.13.
The corresponding values for `ClC(Cl)(Cl)Cl` [tetrachloromethane] + CCCCn1cc[n+](C)c1.F[B-](F)(F)F are 5.73 ± 0.49, 6.09 ± 0.53, 6.27 ± 0.54, 6.42 ± 0.55 and 6.52 ± 0.56.
Consider `ClC(Cl)Cl` [trichloromethane] + CCCCn1cc[n+](C)c1.F[B-](F)(F)F, for which the activity coefficient was found to be 1.11 ± 0.092 (303.15 K); 1.21 ± 0.1 (313.15 K); 1.28 ± 0.11 (323.15 K); 1.36 ± 0.11 (333.15 K); 1.43 ± 0.12 (343.15 K).
